Assay results reported in ChEMBL document CHEMBL1158775, “Quinones from Chirita eburnea” (J Nat Prod, 2005).

Each compound was assayed on Radical scavenging activity (assay: Antioxidant activity assessed as DPPH radical scavenging activity).
Type: functional

| IC50 [µM] | Compound |
| --- | --- |
| 86.9 | O=C1O[C@H]([C@@H](O)CO)C(O)=C1O [ASCORBIC ACID] |
| 45.7 | COc1c(O)cc2c(c1O)C(=O)C1=C(C2=O)C(C)(C)[C@H](C)O1 |
| 125 | C[C@@H]1OC2=C(C(=O)c3ccc(O)c(O)c3C2=O)C1(C)C |
